The subject of one test is T1, LXR.
T1 construct: fused on or other part: GST fused to the LBD in the FRET assay
In words: Measured EC50 or IC50 for LXR (LXRα and/or LXRβ; assay and subtype not given). The note with it: IC50 or EC50 class, subtype not specified. The method, then:
(§1) Measured EC50 or IC50 for LXR, and FXR for Compounds of the Invention
(§2) LXR and FXR activities for various compounds of the invention are presented in the following table; those compounds with EC50 or IC50 values <10 μM for at least one of LXRα, LXRβ or FXR are considered to be active. In the following Table, IC50 or EC50 data is represented as follows: A<1 μM, B=1-10 μm, and C>10 μM.

Another test concerns the target T2, FXR (Homo sapiens, UniProt Q96RI1).
T2 sequence (Q96RI1 1-472 isoform Q96RI1-2): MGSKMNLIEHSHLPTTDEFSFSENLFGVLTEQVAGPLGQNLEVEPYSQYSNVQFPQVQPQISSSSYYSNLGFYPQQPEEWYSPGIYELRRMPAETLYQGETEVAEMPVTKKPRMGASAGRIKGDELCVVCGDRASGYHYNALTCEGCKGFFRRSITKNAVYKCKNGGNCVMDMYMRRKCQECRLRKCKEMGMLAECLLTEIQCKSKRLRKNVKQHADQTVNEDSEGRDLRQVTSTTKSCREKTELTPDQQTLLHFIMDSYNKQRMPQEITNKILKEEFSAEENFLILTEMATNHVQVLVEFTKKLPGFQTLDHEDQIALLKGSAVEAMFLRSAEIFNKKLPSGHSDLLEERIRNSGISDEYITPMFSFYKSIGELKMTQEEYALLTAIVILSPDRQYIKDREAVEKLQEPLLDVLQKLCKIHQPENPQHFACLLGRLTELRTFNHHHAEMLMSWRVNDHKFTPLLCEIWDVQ
The test is described as follows: Measured EC50 or IC50 for FXR (assay not given). The note with it: IC50 or EC50 class; assay not specified. How it is done: as §1, §2

As a reminder, the EC50 is the concentration giving half of the maximal effect. A high value points to lower potency in that assay.

As to `CC(C)(O)c1cc(-c2ccc(-c3cccc(S(C)(=O)=O)c3)s2)n(-c2c(Cl)cccc2Cl)n1` [Example 949, 2-[1-(2,6-dichlorophenyl)-5-{5-[3-(methylsulfonyl)phenyl]-2-thienyl}-1H-pyrazol-3-yl]propan-2-ol], the 50% effective concentration (EC50) in the test with LXR is less than 1000 nM; at FXR, 1000 to 10000 nM.

As to `CC(C)(O)c1cc(-c2ccc(-c3cccc(S(C)(=O)=O)c3)s2)n(-c2c(F)cccc2Cl)n1` [Example 950, 2-[1-(2-chloro-6-fluorophenyl)-5-{5-[3-(methylsulfonyl)phenyl]-2-thienyl}-1H-pyrazol-3-yl]propan-2-ol], the EC50 in the test on LXR is less than 1000 nM; on FXR, 1000 to 10000 nM.

For `CC(C)(O)c1cc(-c2ccc(-c3cccc(S(C)(=O)=O)c3)s2)n(-c2c(F)cccc2C(F)(F)F)n1` [Example 951], the EC50 with LXR was less than 1000 nM; at FXR it was 1000 to 10000 nM.

As to `Cc1cccc(Cl)c1-n1nc(C(C)(C)O)cc1-c1ccc(-c2cccc(S(C)(=O)=O)c2)s1` [Example 952, 2-[1-(2-chloro-6-methylphenyl)-5-{5-[3-(methylsulfonyl)phenyl]-2-thienyl}-1H-pyrazol-3-yl]propan-2-ol], the EC50 in the test with LXR is less than 1000 nM; on FXR, 1000 to 10000 nM.

On to `CC(C)(O)c1nn(-c2c(Cl)cccc2Cl)c(-c2ccc(-c3cccc(S(C)(=O)=O)c3)s2)c1Cl` [Example 953, 2-[4-chloro-1-(2,6-dichlorophenyl)-5-{5-[3-(methylsulfonyl)phenyl]-2-thienyl}-1H-pyrazol-3-yl]propan-2-ol], for which the EC50 in the test with LXR is less than 1000 nM; at FXR, 1000 to 10000 nM.

As for `CC(C)(O)c1nn(-c2c(F)cccc2Cl)c(-c2ccc(-c3cccc(S(C)(=O)=O)c3)s2)c1Cl` [Example 954, 2-[4-chloro-1-(2-chloro-6-fluorophenyl)-5-{5-[3-(methylsulfonyl)phenyl]-2-thienyl}-1H-pyrazol-3-yl]propan-2-ol], the figures for the concentration giving a half-maximal response (EC50) in the test on LXR and at FXR were less than 1000 nM and 1000 to 10000 nM, respectively.

Turning to `CC(C)(O)c1cc(-c2ccc(-c3cccc(S(C)(=O)=O)c3)s2)n(-c2c(Cl)cncc2Cl)n1` [Example 955, 2-[1-(3,5-dichloropyridin-4-yl)-5-{5-[3-(methylsulfonyl)phenyl]-2-thienyl}-1H-pyrazol-3-yl]propan-2-ol], the EC50 with LXR was less than 1000 nM; on FXR, 1000 to 10000 nM.

Turning to `CC(C)(O)c1cc(-c2ccc(-c3cccc(S(C)(=O)=O)c3)cc2)n(-c2c(Cl)cccc2Cl)n1` [Example 956, 2-{1-(2,6-dichlorophenyl)-5-[3′-(methylsulfonyl)biphenyl-4-yl]-1H-pyrazol-3-yl}propan-2-ol], the EC50 in the test with LXR was less than 1000 nM; at FXR, 1000 to 10000 nM.

With `CC(C)(O)c1nn(-c2c(Cl)cccc2Cl)c(-c2ccc(-c3cccc(S(C)(=O)=O)c3)cc2)c1Cl` [Example 957, 2-{4-chloro-1-(2,6-dichlorophenyl)-5-[3′-(methylsulfonyl)biphenyl-4-yl]-1H-pyrazol-3-yl}propan-2-ol], the EC50 with LXR and at FXR was less than 1000 nM in each case.

For the molecule `CC(C)(O)c1cc(-c2ccc(-c3cccc(S(C)(=O)=O)c3)cc2Cl)n(-c2c(Cl)cccc2Cl)n1` [Example 958, 2-{5-[3-chloro-3′-(methylsulfonyl)biphenyl-4-yl]-1-(2,6-dichlorophenyl)-1H-pyrazol-3-yl}propan-2-ol], the concentration for a half-maximal effect (EC50) with LXR and on FXR was less than 1000 nM in each case.

For the molecule `CC(C)(O)c1nn(-c2c(Cl)cccc2Cl)c(-c2ccc(-c3cccc(S(C)(=O)=O)c3)cc2Cl)c1Cl` [Example 959, 2-{4-chloro-5-[3-chloro-3′-(methysulfonyl)biphenyl-4-yl]-1-(2,6-dichlorophenyl)-1H-pyrazol-3-yl}propan-2-ol], the EC50 in the test with LXR and on FXR was less than 1000 nM in each case.

Turning to `Cc1cc(-c2cccc(S(C)(=O)=O)c2)ccc1-c1cc(C(C)(C)O)nn1-c1c(Cl)cccc1Cl` [Example 960, 2-{1-(2,6-dichlorophenyl)-5-[3-methyl-3′-(methylsulfonyl)biphenyl-4-yl]-1H-pyrazol-3-yl}propan-2-ol], the concentration giving a half-maximal response (EC50) in the test on LXR and on FXR was less than 1000 nM each time.

The values are drawn from patent US7998995B2 (Exelixis Patent Company LLC, priority 2006, dated 2011).
